Cytotoxicity data for 70 compounds are collected here from ChEMBL document CHEMBL3507680, “University of Dundee, Gates Library screen for HepG2 cell viability”.

This data set can be described thus: Human HepG2 cell viability assay in 384 well format. In kind it is toxicity, cell-based. Also noted: dose 125 nL, time 70.5 hour; concentration not given beside the values. Conditions: HepG2 cells, read-out: Inhibition.
As to `O=S(=O)(NCC1COCc2c(-c3ccncc3)nnn2C1)C1CC1` (stereo not given), the cytotoxicity at 70.5 h was -3.99%.
As for `O=C(CCc1ccccc1)Nc1ncccc1OC(F)F`, the cytotoxicity at 70.5 h is -0.101%.
Next, `CCCn1nc2c(cc1=O)CN(CC(=O)N(C)c1nccs1)CC2`: -4.23%; `COc1ccc(NC2(C(=O)N3CCCn4cncc4C3)CCCC2)cc1`: -13%.
Regarding `CCN(Cc1ccoc1)C(=O)c1cc2c(c(S(N)(=O)=O)c1)CCC2`, the cytotoxicity at 70.5 h was -8.02%.
Next, `Cc1cc2nc(CO[C@H]3CN(C4CCC4)C[C@H]3F)[nH]c2cc1C`: -2.01%; `Cn1ccnc(Sc2ccc(O)cc2)c1=O`: -14.3%.
Next, `Cc1cc(NS(=O)(=O)c2c[nH]c3ncccc23)no1`: 0.354%; `O=C(c1ccncc1)N1CCN(C(=O)c2coc3ccccc23)CC1`: -11%; `O=C(Cn1cc(C2CC2)nn1)N(Cc1ccco1)CC1CCCO1` (stereo not given): 10.2%.
On to `N#CC1(C(=O)N2CCCN(c3nccs3)CC2)CCCCC1`, for which the cytotoxicity at 70.5 h is -4.97%.
Take `COc1ccc(NC(=O)N2CCCCCC2c2ccncc2)cn1` (stereo not given): the cytotoxicity at 70.5 h is -6.87%.
Take `CN(C)c1ccc(C(=O)N2Cc3cnc(C(C)(C)C)nc3C2)cc1`: the cytotoxicity at 70.5 h was -2.91%.
Next, `Cc1cc(CN2CCC(C3Nc4ccccc4S(=O)(=O)N3)CC2)oc1C` (stereo not given): -3.27%.
`CC(C)Nc1ncnc2c1CCNCC2`: the cytotoxicity at 70.5 h came to 2.95%.
On to `COc1cccc(CC(=O)N2CCCC(c3nncn3C)C2)c1` (stereo not given), for which the cytotoxicity at 70.5 h is -12.3%.
Then `Cc1ncc(CNc2cnccc2CO)s1`, with 6.67%; and `O=C(NCc1ccco1)[C@@H]1CCO[C@@H]2CCN(CC3CC3)C[C@@H]21`, with -6.8%.
Next, `COC(=O)N1CCCC(C(=O)Nc2nc(C)c(SC)s2)C1` (stereo not given): -9.54%; `c1ccc(Cc2nnc(CN3CCOC(Cn4cccn4)C3)o2)cc1` (stereo not given): 0.701%.
Regarding `CC(C)c1noc(CN2CCN(CCO)CC2)n1`, the cytotoxicity at 70.5 h is 2.45%.
Then `COC(C)c1noc(CN(C)c2ncccn2)n1` (stereo not given), with -1.92%.
Next, `Cc1cc(C(F)(F)F)nn1C(C)C(=O)Nc1ccncc1` (stereo not given): 23.9%.
Then `COCCN1CCc2ncc(CN(C)C)n2CC1`, with -0.491%.
Take `CC(C)CN1CCCC2(CCN(c3ccccn3)C2)C1` (stereo not given): the cytotoxicity at 70.5 h was determined as 8.64%.
Regarding `Cc1cc(C(=O)NCCN2CCCC(C)C2)nn1C` (stereo not given), the cytotoxicity at 70.5 h is -5.9%.
Then `COc1ccccc1S(=O)(=O)N1CCC2(CC1)OCCCC2O` (stereo not given), with -6.84%; and `CN(C)C(=O)CN1CCN(c2cc(N3CCCC3CO)ncn2)CC1` (stereo not given), with -4.56%.
Then `CCN1C(=O)CO[C@@H]2CN(C(=O)C3CCOCC3)C[C@H]21`, with -6.45%; and `NC(=O)CNC(c1ccccc1)c1ccccc1`, with 17.2%; and `COCCN1CC(Nc2nc(C(C)C)nc3c2cnn3C)CC1=O` (stereo not given), with -0.509%.
Then `O=C(c1ccc(N2CCCC2)nn1)N1CCCC(n2ccnc2)C1` (stereo not given), with -5.71%; and `CC(C)C(C(=O)N1CCCN(Cc2nccn2C)CC1)N1CCCC1` (stereo not given), with 30.4%.
Take `CCn1nc(C)c2nc(C(C)C)nc(N3CCOCC3)c21`: the cytotoxicity at 70.5 h amounted to 11.2%.
`O=C1CO[C@H]2CCN(C(=O)c3ccc4c(c3)CCCC4)CC[C@@H]2N1`: the cytotoxicity at 70.5 h is -8.53%.
As for `CC(C)(CNC(=O)C1CCCN1S(C)(=O)=O)N1CCOCC1` (stereo not given), the cytotoxicity at 70.5 h is -11%.
Next, `O=C(CCn1nc(C(F)(F)F)c(Cl)c1C1CC1)NN1CCOCC1`: -1.82%.
Next, `CSCC[C@@H](CO)Nc1nc(-c2ccccn2)nc2c1c(C)nn2C`: -0.626%.
Turning to `CN(C)CCOc1cccc(CN2CCCC3(C2)CN(C)C(=O)O3)c1` (stereo not given), the cytotoxicity at 70.5 h worked out at 26%.
Next, `CN1CC(NC(=O)CCCc2cc(Cl)sc2Cl)CCC1=O` (stereo not given): -6.53%; `CC(=O)NCCCNCc1ccc(Cl)c2cccnc12`: 0.472%; `O=C(C[C@H]1[C@H]2CN(c3ncccn3)C[C@@H]12)Nc1cccnc1`: 4.76%.
Next, `Cc1ccsc1C(=O)N1Cc2ncn(C)c2C(COCC2CC2)C1` (stereo not given): 5.9%; `O=C1[C@H]2CN(C(=O)[C@H]3CCCO3)C[C@H]2CN1CCN1CCCC1`: -9.56%.
On to `COc1ccc(CCNCc2c(C)nn(C)c2N(C)C)cc1OC`, for which the cytotoxicity at 70.5 h is -1.22%.
Take `Cc1nc(C(C)C)sc1C(=O)N1CCC(N2CCSCC2)CC1`: the cytotoxicity at 70.5 h was -12.7%.
Consider `O=C(c1cnc(O)cn1)N(Cc1ccsc1)CC1CCCO1` (stereo not given), for which the cytotoxicity at 70.5 h amounted to 25.2%.
With `Cc1nc(CN2CCCC(CCc3cccc(C(F)(F)F)c3)C2)co1` (stereo not given), the cytotoxicity at 70.5 h was -3.79%.
Next, `Cc1nc(CN2CCC(N3CCN(C)C3=O)CC2)no1`: 18%; `O=C1[C@@H]2CN(C3CCOCC3)C[C@H]2CCN1CC1CC1`: -10.2%; `CN(C)S(=O)(=O)N1C[C@H](Oc2cccnc2)[C@H]2OCCC[C@H]21`: 31.1%.
Next, `CC(C)Oc1ccc2c(NC(=O)[C@H](C)O)nn(CC(F)(F)F)c2c1`: -16.3%; `CN1CCCN(C(=O)c2cc(-c3cc[nH]n3)n3ccccc23)CC1`: -1.54%.
Regarding `O=C1CCC[C@]2(CN(S(=O)(=O)N3CCOCC3)C[C@H]2c2cccnc2)N1`, the cytotoxicity at 70.5 h was -4.54%.
Next, `CC(C)N1CCC(Cc2cncc(-c3cc(F)ccc3C(=O)O)n2)C1` (stereo not given): -6.34%; `O=S(=O)(c1cccs1)N1CC[C@H]2[C@H]1CCN2c1ncccn1`: -4.67%; `O=C(CC1Cn2ncnc2NC1=O)Nc1ccc(F)c(F)c1` (stereo not given): -7.69%.
Consider `CCc1cnc(CN(C)C2CCN(CCS(C)(=O)=O)C2)o1` (stereo not given), for which the cytotoxicity at 70.5 h is -6.45%.
Next, `CNC(=O)[C@@H]1C[C@H](N)CN1S(=O)(=O)c1cc(C)c(Cl)cc1C`: 1.05%; `O=C(c1cn(-c2ccccc2)nn1)N1CCCC(n2cccn2)C1` (stereo not given): -3.98%.
Then `O=C(O)c1c(-c2cccnc2)ncc2c1CCN(CC1CCOC1)C2` (stereo not given), with 16.6%.
Then `Cc1ccc(N2CC[C@H]3O[C@@H](C(=O)N4CCCO4)CC[C@H]32)nn1`, with 0.0406%.
For `Cc1cccc(CN2CCN(Cc3ccccc3)CC(O)C2)n1` (stereo not given), the cytotoxicity at 70.5 h is -12.1%.
Then `COc1ccccc1CC(=O)N1CCCC1Cn1nc(C)cc1C` (stereo not given), with -2.44%; and `CC(C)NC(=O)N1CCN(C(=O)c2ccco2)CC2(CC(=O)N(C)C2)C1` (stereo not given), with -23.2%; and `CNC(=O)CN1CC[C@H]2CN(C(=O)c3cccn3C)C[C@H]2C1`, with -5.44%.
Next, `CC(=O)N(Cc1ncc(C(C)C)o1)C1CCN(Cc2cc(C)on2)C1` (stereo not given): -6.93%.
Next, `Cc1nc(C2CCCN(C(=O)CCCOc3cccc(F)c3)C2)no1` (stereo not given): -16.6%; `CCCN1CCCC1c1nc(Cc2ccc(F)cc2)no1` (stereo not given): 15.1%; `Fc1ccc(Cn2ncc3c2CN(c2ncccn2)C3)cc1`: -0.987%.
